According to PMC6009893, “Synthesis, biological activity and molecular modelling studies of shikimic acid derivatives as inhibitors of the shikimate dehydrogenase enzyme of Escherichia coli” (Journal of Enzyme Inhibition and Medicinal Chemistry, 2018):
≈ marks a conversion by molar mass, not a printed value.

How the values were obtained:
[1] = molecular target: T1, EcSDH (shikimate dehydrogenase enzyme of Escherichia coli) (Escherichia coli, UniProt P15770); test: EcSDH enzymatic activity assay (NADPH oxidation at 340 nm, DHS as substrate); assay type: biochemical; settings: for KI (dissociation constant for the enzyme-substrate-inhibitor complex): 25 °C, NADPH 0.21 mM, DHS 0.0625-1.5 mM, mixed type inhibition, triplicate
T1 construct: 6-Histidine tag (pCold-I) (N, cleaved yes); made in house; host or cells: E. coli ΔaroE::KanR (JW3242, Keio collection) carrying pCold-EcSDH
T1 sequence (P15770 whole entry): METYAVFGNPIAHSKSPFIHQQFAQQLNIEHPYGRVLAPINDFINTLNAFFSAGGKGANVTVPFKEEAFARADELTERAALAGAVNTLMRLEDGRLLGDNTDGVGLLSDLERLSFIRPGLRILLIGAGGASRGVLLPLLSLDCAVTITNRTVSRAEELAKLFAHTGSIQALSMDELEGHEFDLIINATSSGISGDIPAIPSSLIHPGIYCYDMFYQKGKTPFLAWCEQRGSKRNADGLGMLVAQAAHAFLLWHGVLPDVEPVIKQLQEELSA
Description: The enzymatic activity of EcSDH was assayed at 25 °C by monitoring the oxidation of NADPH at 340 nm (ϵ = 6.18 × 10^3 M^−1 cm^−1). All assays were performed in a Genesys 10 S UV-vis spectrophotometer (Thermo Fisher Scientific Inc., Waltham, MA). The reaction mix contained (final volume 200 µl) KH2PO4 100 mM pH 7.5, NADPH 0.21 mM, DHS, synthesised molecules and diluted enzyme. Stored enzyme stocks (200 U/ml) were diluted 1:100 in KH2PO4 100 mM pH 7.5 before use. The reaction was initiated by addition of 2 µl of the diluted EcSDH enzyme and absorbance was measured within 2 min. During assays NADPH concentration was fixed at 0.21 mM, DHS concentrations were 0.0625, 0.125, 0.25, 0.5, 1 and 1.5 mM and concentrations of amides were 0, 0.25, 0.5, 1 and 1.5 mM. Experiments were performed in triplicate.
To determine the inhibition mode Lineweaver–Burk plots of the inverse of velocities (1/v) versus the inverse of substrate concentration 1/[S] were obtained. The Michaelis–Menten constant (Km), maximum velocity (Vmax) and inhibition constants (Ki and KI) were analysed using Equation (1)[22]^,[23]. Where I represent the inhibitor concentration, KI is defined as the dissociation constant for the enzyme-substrate-inhibitor complex and Ki as the dissociation constant for the enzyme-inhibitor complex. Kinetic data were processed by nonlinear regression using the Origin software (OriginLab, Northampton, MA).
Dissociation constants were related to IC50 values following the Cheng–Prusoff Equation (2)[24]. Where IC50 represents the concentration of inhibitor producing 50% of enzyme inhibition. The determined Km of DHS was 92.29 ± 2.70 µM, and 125 µM of DHS was delimited as the substrate concentration [S]: (1) v=Vmax [S]/S1+I/KI+ Km(1+ [I]/Ki) (2) IC50= Km+[S]/Km/Ki+ ([S]/KI).
The inhibitory effect of SA amide-derivatives was tested against EcSDH at […]. To characterise the enzymatic activity for its more biological meaningful reaction, the enzyme was assayed in the direction of SA formation, for this DHS was used as the substrate. The activity of EcSDH enzyme was determined in the presence of different concentrations of synthesised compounds, and Lineweaver–Burk plots of (1/v) versus 1/[S] were obtained. […] To characterise the kinetic parameters, data were analysed using Equation (1). For every synthesised amide Ki < KI indicating a stronger affinity for the substrate free instead of bounded substrate enzyme. […] Despite the similar magnitude of inhibition, it appears that inhibition activity smoothly increases with increase in the alkyl chain length. […] The similar inhibitory effect of diamides may arise with strong participation of the extra SA substituent.

[2] = tested on: E. coli strain JM101; test: Minimal inhibitory concentration (MIC), broth microdilution; assay type: cell-based; settings: Escherichia coli, LB media, 37 °C, 16 h, tested 4-512 mg/l, duplicate
Description: The broth microdilution method[25] was used to determine the MIC of synthesised molecules against E. coli strain JM101. Cells were grown to exponential phase in LB media (OD600nm ∼0.5) and the cultures were diluted to a concentration of 2 × 10^5 colony-forming units/ml. The 96-well plates containing 75 µl of LB media and synthesised compounds were inoculated with 75 µl of the bacterial suspension and shaken at 37 °C for 16 h. Compounds were tested in a range of doubling concentrations between 4 and 512 mg/l with a final dimethylsulphoxide concentration of 0.8% (v/v). LB media supplemented with kanamycin was used as a positive control, and the OD600nm of the DMSO-treated control was taken as representative of 100% bacterial growth. […] Experiments were performed in duplicate.

[3] = tested on: SDH enzyme of Escherichia coli (EcSDH); set-up: method as in earlier work; settings: cited from earlier work
[4] = molecular target: SDH of H. pylori; set-up: method as in PMID 16972983; settings: SA; non-competitive inhibitor; cited from earlier work
[5] = tested on: H. pylori; set-up: method as in PMID 16972983; settings: in vitro antibacterial activity; cited from earlier work
[6] = tested on: SDH of Pseudomonas putida; set-up: method as in PMID 24632659; settings: cited from earlier work
[7] = molecular target: Pisum sativum SDH enzyme; set-up: method as in PMID 13686343; settings: SA; competitive inhibition; cited from earlier work

SMILES	IC50 [1]	Ki [1]	KI (dissociation constant for the enzyme-substrate-inhibitor complex) [1]	MIC [2]	further results
O=C(NCCNC(=O)C1=C[C@@H](O)[C@@H](O)[C@H](O)C1)C1=C[C@@H](O)[C@@H](O)[C@H](O)C1 [Dim2, (3R,3'R,4S,4'S,5R,5'R)-N,N'-(ethane-1,2-diyl)bis(3,4,5-trihydroxycyclohex-1-ene-1-carboxamide)]	588 ± 55 µM	416 ± 69 µM	831 ± 12 µM	512 µg/mL (≈ 1370 µM)	–
O=C(NCCCNC(=O)C1=C[C@@H](O)[C@@H](O)[C@H](O)C1)C1=C[C@@H](O)[C@@H](O)[C@H](O)C1 [Dim3, (3R,3'R,4S,4'S,5R,5'R)-N,N'-(propane-1,3-diyl)bis(3,4,5-trihydroxycyclohex-1-ene-1-carboxamide)]	589 ± 56 µM	400 ± 50 µM	896 ± 72 µM	512 µg/mL (≈ 1330 µM)	–
O=C(NCCCCNC(=O)C1=C[C@@H](O)[C@@H](O)[C@H](O)C1)C1=C[C@@H](O)[C@@H](O)[C@H](O)C1 [Dim4, (3R,3'R,4S,4'S,5R,5'R)-N,N'-(butane-1,4-diyl)bis(3,4,5-trihydroxycyclohex-1-ene-1-carboxamide)]	652 ± 65 µM	458 ± 81 µM	945 ± 13 µM	512 µg/mL (≈ 1280 µM)	–
O=C(NCCCO)C1=C[C@@H](O)[C@@H](O)[C@H](O)C1 [Mon3, (3R,4S,5R)-3,4,5-trihydroxy-N-(3-hydroxypropyl)cyclohex-1-ene-1-carboxamide]	949 ± 33 µM	733 ± 67 µM	1214 ± 58 µM	512 µg/mL (≈ 2210 µM)	–
O=C(NCCCCO)C1=C[C@@H](O)[C@@H](O)[C@H](O)C1 [Mon4, (3R,4S,5R)-3,4,5-trihydroxy-N-(4-hydroxybutyl)cyclohex-1-ene-1-carboxamide]	882 ± 54 µM	717 ± 71 µM	1145 ± 130 µM	512 µg/mL (≈ 2090 µM)	–
O=C(NCCCCCO)C1=C[C@@H](O)[C@@H](O)[C@H](O)C1 [Mon5, (3R,4S,5R)-3,4,5-trihydroxy-N-(5-hydroxypentyl)cyclohex-1-ene-1-carboxamide]	953 ± 10 µM	642 ± 34 µM	1483 ± 91 µM	512 µg/mL (≈ 1970 µM)	–
O=C(NCCCCCCO)C1=C[C@@H](O)[C@@H](O)[C@H](O)C1 [Mon6, (3R,4S,5R)-3,4,5-trihydroxy-N-(6-hydroxyhexyl)cyclohex-1-ene-1-carboxamide]	829 ± 49 µM	587 ± 49 µM	1188 ± 26 µM	512 µg/mL (≈ 1870 µM)	–
O=C(O)C1=C[C@@H](O)[C@@H](O)[C@H](O)C1 [SA, (-)-shikimic acid]	–	–	–	–	Ki [3]: 160 µM
COc1cc(/C=C/C(=O)CC(=O)/C=C/c2ccc(O)c(OC)c2)ccc1O [curcumin]	–	–	–	–	Ki [4]: 6 µM; MIC [5]: 16 µg/mL (≈ 43.4 µM)
O=C(O[C@@H]1Cc2c(O)cc(O)cc2O[C@@H]1c1cc(O)c(O)c(O)c1)c1cc(O)c(O)c(O)c1 [epigallocatechin gallate]	–	–	–	–	IC50 [6]: 3 µM
O=C(O)c1cc(O)c(O)c(O)c1 [gallic acid]	–	–	–	–	Ki [7]: 380 µM
O=C(O)c1ccc(O)c(O)c1 [protocatechuic acid]	–	–	–	–	Ki [7]: 750 µM
COc1cc(C=O)ccc1O [vanillin]	–	–	–	–	Ki [7]: 93 µM
